Two compounds from patent publication US8183005B1, “Pharmaceutical agents for treating HCV infections” (priority 2004, dated 2012) can be followed below.

Where two headings read alike, the source gives them in different places.

One data set concerns HCV replication. Briefly: Recovery from replication inhibition by C2-ceramide, Western blot. As to conditions: C2-ceramide added at the same time, 96 hours. The class given is cell-based. The procedure:
To elucidate whether the inhibitory activity of the compound represented by formula (II) against the HCV replicon is dependent on the sphingolipid biosynthetic pathway, cell-permeable ceramide, C2-ceramide (Sigma, Cat. No. A7191), was added to HCV replicon cells at the same time as the compound represented by formula (II), and these were cultured for 96 hours. These cell extracts were used to perform Western blot analysis using a method similar to that of Example 5.

The next data set has as its system NS3, NS5A, and NS5B. Nature of the data set: Western blotting of NS3, NS5A and NS5B in replicon cells. The following applies: 100 nM, 48 hours and 96 hours. It is filed as cell-based, HCV. The procedure: Replicon cells were treated with 100 nM of the compound represented by formula (II) for the lengths of time indicated in FIG. 11 (48 hours and 96 hours). Western blot analysis was performed using a method similar to that of Example 5.
On the technique in general: In western blotting, separated proteins are transferred to a membrane and probed.

Data set [1] has as its system raft proteins (NS5B, NS5A, caveolin-2). Nature of the data set: Effect on raft proteins, sucrose density gradient fractionation, Western blot or ELISA. It is filed as cell-based. The following applies: 72 hours. The procedure:
1 mM of the compound represented by formula (II) was added to the HCV replicon cells, then 72 hours later the cell extract was treated for one hour with a solubilizer, 1% Nonidet P-40 (Nacalai tesque, Cat. No. 252-23). Fractions 1 to 9 were separated by the sucrose density gradient fractionation method, and Western blot analysis was performed using a method similar to that of Example 5. […] Caveolin-2 expression was confirmed using a caveolin-2 antibody (BD Transduction, Cat. No 610684).
1 μM of the compound represented by formula (II) was added to the HCV replicon cells, then 72 hours later the cell extract was treated for one hour with 1% NP-40. Raft proteins (solubilizer-resistant) and non-raft proteins were separated using the sucrose density gradient fractionation method, diluted with PBS, concentrated, and then quantified by ELISA analysis.

For data set [2], the system named is de novo syntheses of ceramide and sphingomyelin. Briefly: De novo syntheses of ceramide and sphingomyelin, [14C]serine labeling. It is filed as cell-based. As to conditions: HCV replicon cells, 48 hours treatment, [14C]serine three hours. The procedure: HCV replicon cells were treated for 48 hours with the compound represented by formula (II) at the concentrations indicated in FIG. 13. The cells were then labeled for three hours with [14C]serine. After extraction with chloroform/methanol (1:2, v/v), de novo synthesized ceramide (FIG. 13A) and sphingomyelin (FIG. 13B) were separated by thin layer chromatography.
(Replicon systems follow genome replication, usually without infectious particles.)

A short description of another data set: in vitro. The class given is cell-based. The following applies: human. The procedure:
(§1) Firefly luciferase HCV replicon cells (Huh-3-1) suspended in Dulbecco's MEM (Gibco Cat. No. 10569) containing 5% fetal bovine serum (Hyclone Cat. No. SH30071.03) were plated onto a 96-well plate at 5000 cells/well, and cultured overnight under 5% CO2 at 37° C. Approximately 20 hours later, fumonisin B1 was added to a final concentration of 1.37 μM to 1000 μM by carrying out a sequential three-fold dilution, and the cells were then cultured for three more days. The assay was carried out by preparing two types of assay plates: one an opaque white plate and the other a transparent plate. After culturing, the white plate was subjected to the Steady-Glo Luciferase Assay System (Promega Cat. No. E2520). More specifically, 100 μL of reagent was added to each well, mixed three to four times using a pipette, and then stood for five minutes before luminescence was measured using 1450 MicroBeta TRILUX (WALLAC). IC50 (50% inhibitory concentration) of a pharmaceutical agent was calculated by subtracting the value obtained without adding the cells as the background value from all of the values, and then defining the level of inhibition without addition of the pharmaceutical agent as 0%. A Cell Counting Kit-8 (DOJINDO Laboratories, Cat. No. 341-07761) was used for the cytotoxicity assays. 10 μL of reagent was added to each well, mixed three to four times using a pipette, and then stood for approximately 30 minutes; measurements were performed when OD450 nm reached approximately 1.0. IC50 (50% inhibitory concentration) of a pharmaceutical agent was calculated by subtracting the value obtained without adding the cells as the background value from all of the values, and then defining the level of inhibition without addition of the pharmaceutical agent as 0%.
(§2) Based on the results of Example 5, the following method was used to measure the effect on cytotoxicity and HCV replicon activity under conditions in which Huh-3-1 cells show reduced LCB1 expression. More specifically, cells were plated onto a 96-well plate at 3500 cells per well, and cultured overnight under 5% CO2 at 37° C. 1.75 μL of 2 μM siRNA was added to 23.3 μL of ECR buffer (buffer included in the RNAiFect Kit), this was stirred vigorously, and then 0.31 μL of RNAiFect transfection reagent was added. This was stirred gently at room temperature and then allowed to stand for ten minutes. siRNA was added to a final concentration of 35 nM, and this was cultured for four days. The effect on cytotoxicity was determined by adding 10 μL of Cell Counting Kit-8 (DOJINDO Laboratories Cat. No. 341-07761) to the medium, mixing three to four times using a pipette, and then allowing this to stand for one hour at 37° C. Absorbance was then measured at 450 nm using a microplate reader Emax (Molecular Devices). After incubation, the medium was exchanged for fresh medium, and the plate was subjected to the Steady-Glo Luciferase Assay System (Promega Cat. No. E2520). 100 μL of reagent was added to each well, mixed three to four times using a pipette, and then allowed to stand for five minutes. Luminescence was then measured using 1450 MicroBeta TRILUX (WALLAC) to determine the HCV replicon activity. IC50 (50% inhibitory concentration) of a pharmaceutical agent was calculated by subtracting the value obtained without adding the cells as the background value from all of the values, and then defining the level of inhibition without addition of the pharmaceutical agent as 0%.
A Cell Counting Kit-8 (DOJINDO Laboratories, Cat. No. 341-07761) was used for the cytotoxicity assays. More specifically, 10 μL of Cell Counting Kit-8 was added to the transparent plate, and this was warmed at 37° C. for 30 to 60 minutes. Using a 96-well plate reader, absorbance was measured at a wavelength of 450 nm with a reference wavelength of 630 nm. […]

The test system of the next data set is HCV-NS3 protein. Briefly: Immunostaining of HCV-NS3 protein in HCV replicon cells. The class given is cell-based. As to conditions: 100 nM, 96 hours. The procedure:
HCV replicon cells were treated with 100 nM of the compound represented by formula (II) for 96 hours, and then the cells were fixed in 3.7% formaldehyde. Blocking with 3% BSA was followed by incubation with an NS3 antibody (provided by F. Hoffman-La Roche), and then the washed cells were incubated with a Texas-Red-labeled rabbit IgG (Molecular probe), and analyzed using a fluorescence microscope (FIG. 10).

In another data set the test system is HCV replicon. Nature of the data set: HCV replicon assay (luciferase). As to conditions: HCV replicon cells, 72 hours. It is filed as cell-based. Here is the method:
as §1, §2
First, to quantify the copy number of HCV-RNA, an RNA was constructed such that a firefly-derived luciferase gene was introduced into the HCV-RNA as a reporter gene. According to the method of Krieger et al. (J. Virol., 75: 4614), the luciferase gene was introduced immediately after the Internal Ribosome Entry Site (IRES) of the HCV gene, so that the gene was fused with the neomycin-resistance gene. […]

In the next data set the test system is HCV protein (NS3). Briefly: Western blot analysis of HCV protein synthesis in Huh-3-1 replicon cells. It is filed as cell-based. The following applies: Hepatitis C virus, 72 h, read-out: concentration reducing expression of HCV proteins by 50%.
A further data set concerns HCV RNA replication. Briefly: Northern blot analysis of HCV RNA replication in Huh-3-1 replicon cells. It is filed as cell-based. The following applies: Hepatitis C virus, 72 h, read-out: concentration reducing replicon RNA by 50%.

Experimental for HCV RNA replication: Cells were collected 72 hours later, total RNAs were extracted, and this was subjected to Northern blot analysis using a neomycin resistance gene as a probe according to the NorthernMax Kit method, available from Ambion.
The probes were labeled with biotin using a BrightStar Psoralen-Biotin Kit (Ambion #9860G3).
1 μg of the total RNAs were electrophoresed on a 1% agarose gel, and then the RNAs were stained with ethidium bromide. The resulting gel was photographed and decolorized, then NorthernMax transfer buffer was used for two hours to transfer the RNAs to the transfer membrane. While the membrane was still wet, the RNAs were fixed to the transfer membrane using a UV crosslinker. The membrane was pretreated in ULTRAhyb for 30 minutes at 42° C. while being rotated in a Hybridization oven. This pretreatment solution was then discarded, and the membrane was treated by adding the biotinylated neomycin resistance gene and 10 mL of ULTRAhyb solution, and then shaking overnight at 42° C.
The ULTRAhyb solution was then discarded, and 15 mL of High Stringency Buffer pre-warmed to 42° C. was added to the membrane, and this was shaken for 30 minutes at 42° C. This same operation was then repeated once. The transfer membrane was washed using enough wash buffer to soak the membrane. The transfer membrane was shaken in a blocking buffer for 30 minutes, then this solution was discarded. […]
Experimental for HCV protein (NS3): After 72 hours, the culture medium was discarded, phosphate buffered saline (PBS) was added, and the cells were dislodged by pipetting and then collected by centrifugation. A lysis solution for phosphate (50 mM Tris-HCl (pH 7.5), 0.5% Triton, 3 mM EDTA, 150 mM NaCl, 12 mM glycerophosphate, 50 mM NaF, 1 mM Na3VO4, 0.5 mM PMSF, and 0.5 mM aporotinin) was added to the cells, the cells were disrupted by pipetting, and the supernatant was collected by high-speed centrifugation. A protein assay was carried out using Dye Reagent (Nacalai Tesque #074-27) (Bovine Gamma Globulin, Standard solution, BIO-RAD #500-0005). […] Rainbow molecular weight markers (Amersham Bioscience #RPN756) were used as molecular weight size markers. […] Western analysis was performed using a rabbit antibody against NS3, derived from an HCV protein. Anti-actin rabbit antibody was used as an internal standard.

For the compound `CCCCCCCC(=O)CCCCCC/C=C/[C@H](C(=O)N[C@@H](Cc1ccc(OCC=C(C)C)cc1)C(=O)O)[C@@](O)(CC(=O)O)C(=O)O` [Compound (40)], in the data set on HCV replication, the “inhibition of HCV replication in presence of C2-ceramide” value is on record as “suppressed in a manner dependent on C2-ceramide concentration”. The “expression levels of NS3, NS5A and NS5B” value in the data set with NS3, NS5A, and NS5B is on record as “reduced”. In addition, the “dissociation of NS5B from the raft” value in data set [1] (1 μM, 1% NP-40, ELISA) is on record as “significant dissociation of NS5B from the raft”. Further, the “effect on NS5A and caveolin-2” value in data set [1] (1 mM, 1% Nonidet P-40, Western blot) is “could not be confirmed”. Also, in data set [2], the “intracellular de novo synthesis of ceramide” value is “inhibited”. Also, the “intracellular de novo synthesis of sphingomyelin” value in data set [2] was “inhibited”. Moreover, the CC50 (commonly the concentration that lowers cell viability or growth by half) is over 50 nM in the data set “in vitro” (HCV replicon cells, FIG. 9, read-out: cytotoxicity CC50) and over 5000 nM in “in vitro” (Huh-3-1 replicon cells, three days, Cell Counting Kit-8, read-out: Cytotoxicity CC50). For the same compound, the “HCV-NS3 protein around the nucleus (immunostaining)” value in the data set with HCV-NS3 protein is listed as “disappeared”.

For `CCCCCCC(=O)CCCCCC/C=C/C[C@@H](O)[C@H](O)[C@@](N)(CO)C(=O)O` [myriocin], the “HCV replication (replicon activity) versus viable cell count” value in the data set with HCV replicon is recorded as “suppressing the HCV replication at non-cytotoxic concentrations”. In addition, the IC50 in the data set with HCV protein (NS3) and in the data set with HCV RNA replication was 1 to 10 nM in each case.
